Experimental data published in the supplement of paper PMC12463676, “Small-molecule dissolution of stress granules by redox modulation benefits ALS models” (Nature Chemical Biology, 2025).

What was measured:
potassium arsenate = compound: O=[As]([O-])(O)O.[K+] [potassium arsenate]; test: thermal stability z-score vs DMSO; higher = more thermally stabilized by treatment; details: HeLa; arsenate concentration 1 mM
Experimental: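 Cellular thermal proteome profiling in HeLa cells treated with 1 mM arsenate for 1 h (DMSO pretreatment), heated to ten temperatures (37-66.3 °C). Soluble protein was quantified by TMT mass spectrometry relative to DMSO controls; the thermal stability score was transformed to a z-score; mean of n = 3 experiments.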

lipoamide = compound: NC(=O)CCCCC1CCSS1 [lipoamide]; test: as above; details: HeLa, lipoamide concentration 100 µM
Experimental: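 Cellular thermal proteome profiling in HeLa cells. Cells were treated with 100 µM lipoamide for 1 h, with or without 1 mM arsenate for a further 1 h, then heated to ten temperatures (37-66.3 °C), and soluble protein was quantified by TMT mass spectrometry relative to 0.1% DMSO controls. The thermal stability score (sum of log2 fold changes minus the abundance score) was transformed to a z-score; mean of n = 3 experiments.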

[1] = arsenate co-treatment: 1 mM arsenate 1 h
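Also: each temperature applied for 3 min, abundance score taken as mean log2 fold change at the two lowest temperatures, z-score obtained by mean subtraction and division by SD.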

Sequence of UniProt P15170 (P15170 whole entry): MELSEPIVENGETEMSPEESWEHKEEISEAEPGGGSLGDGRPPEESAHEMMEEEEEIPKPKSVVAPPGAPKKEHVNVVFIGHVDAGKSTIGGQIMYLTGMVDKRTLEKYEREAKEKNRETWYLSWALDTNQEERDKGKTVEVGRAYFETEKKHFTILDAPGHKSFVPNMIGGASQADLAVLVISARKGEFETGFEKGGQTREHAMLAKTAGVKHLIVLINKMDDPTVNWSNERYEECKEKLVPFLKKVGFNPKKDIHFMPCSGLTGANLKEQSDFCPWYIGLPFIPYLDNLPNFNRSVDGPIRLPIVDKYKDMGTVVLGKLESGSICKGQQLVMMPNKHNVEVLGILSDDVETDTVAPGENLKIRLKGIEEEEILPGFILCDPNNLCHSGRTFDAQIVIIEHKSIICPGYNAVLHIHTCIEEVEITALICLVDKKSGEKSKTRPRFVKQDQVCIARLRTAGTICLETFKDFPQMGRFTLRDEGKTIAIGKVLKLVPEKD
Sequence of UniProt Q5T0N5 (Q5T0N5 whole entry): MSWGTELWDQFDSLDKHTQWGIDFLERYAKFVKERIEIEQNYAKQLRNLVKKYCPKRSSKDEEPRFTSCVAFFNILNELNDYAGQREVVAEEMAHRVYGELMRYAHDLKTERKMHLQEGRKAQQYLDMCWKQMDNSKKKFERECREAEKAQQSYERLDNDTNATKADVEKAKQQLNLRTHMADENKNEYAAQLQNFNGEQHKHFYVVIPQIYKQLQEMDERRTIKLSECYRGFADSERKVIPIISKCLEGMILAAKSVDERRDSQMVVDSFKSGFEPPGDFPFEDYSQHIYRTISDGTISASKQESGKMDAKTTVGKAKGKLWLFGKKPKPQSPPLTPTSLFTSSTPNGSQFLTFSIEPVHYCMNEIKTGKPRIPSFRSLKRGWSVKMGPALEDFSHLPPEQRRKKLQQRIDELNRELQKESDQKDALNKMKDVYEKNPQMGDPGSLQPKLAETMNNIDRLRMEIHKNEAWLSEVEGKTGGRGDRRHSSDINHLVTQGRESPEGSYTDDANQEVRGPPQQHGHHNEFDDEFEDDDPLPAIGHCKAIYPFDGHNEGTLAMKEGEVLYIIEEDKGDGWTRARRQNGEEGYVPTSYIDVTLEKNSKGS
Sequence of UniProt O15260 (O15260 whole entry): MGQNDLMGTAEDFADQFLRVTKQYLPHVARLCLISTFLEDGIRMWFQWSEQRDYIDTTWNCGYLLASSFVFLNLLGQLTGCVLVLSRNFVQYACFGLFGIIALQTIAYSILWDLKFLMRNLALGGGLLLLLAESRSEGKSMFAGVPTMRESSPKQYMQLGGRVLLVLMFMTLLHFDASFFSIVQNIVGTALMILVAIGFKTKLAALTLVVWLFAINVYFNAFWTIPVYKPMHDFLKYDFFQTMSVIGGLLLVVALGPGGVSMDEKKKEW
Sequence of UniProt P15291 (P15291 whole entry): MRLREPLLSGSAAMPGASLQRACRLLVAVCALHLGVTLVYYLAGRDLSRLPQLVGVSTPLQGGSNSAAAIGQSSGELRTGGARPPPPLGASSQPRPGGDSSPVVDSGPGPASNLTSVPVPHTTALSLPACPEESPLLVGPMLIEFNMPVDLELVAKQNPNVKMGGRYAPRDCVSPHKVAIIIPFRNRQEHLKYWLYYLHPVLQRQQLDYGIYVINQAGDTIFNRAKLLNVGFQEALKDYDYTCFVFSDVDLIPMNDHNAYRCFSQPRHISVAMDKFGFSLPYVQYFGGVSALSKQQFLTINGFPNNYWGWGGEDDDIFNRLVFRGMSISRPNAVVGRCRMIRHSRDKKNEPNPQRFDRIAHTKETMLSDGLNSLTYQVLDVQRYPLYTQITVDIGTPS
Sequence of UniProt Q9Y262 (Q9Y262 whole entry): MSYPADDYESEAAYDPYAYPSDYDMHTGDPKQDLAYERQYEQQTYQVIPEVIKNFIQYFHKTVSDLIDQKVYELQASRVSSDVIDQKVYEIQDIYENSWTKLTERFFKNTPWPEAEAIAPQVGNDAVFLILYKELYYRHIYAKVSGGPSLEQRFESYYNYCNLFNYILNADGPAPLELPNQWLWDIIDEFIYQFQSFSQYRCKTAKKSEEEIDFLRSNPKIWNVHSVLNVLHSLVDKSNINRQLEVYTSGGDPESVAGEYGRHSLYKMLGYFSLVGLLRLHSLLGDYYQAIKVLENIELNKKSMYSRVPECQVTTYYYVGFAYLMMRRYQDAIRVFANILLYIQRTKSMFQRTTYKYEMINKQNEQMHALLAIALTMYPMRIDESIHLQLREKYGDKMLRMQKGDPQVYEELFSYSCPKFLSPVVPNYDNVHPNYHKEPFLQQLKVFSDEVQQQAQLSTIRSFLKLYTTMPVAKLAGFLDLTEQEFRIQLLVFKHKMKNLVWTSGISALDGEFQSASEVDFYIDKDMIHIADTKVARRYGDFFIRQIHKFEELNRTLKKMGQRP
Sequence of UniProt P54709 (P54709 whole entry): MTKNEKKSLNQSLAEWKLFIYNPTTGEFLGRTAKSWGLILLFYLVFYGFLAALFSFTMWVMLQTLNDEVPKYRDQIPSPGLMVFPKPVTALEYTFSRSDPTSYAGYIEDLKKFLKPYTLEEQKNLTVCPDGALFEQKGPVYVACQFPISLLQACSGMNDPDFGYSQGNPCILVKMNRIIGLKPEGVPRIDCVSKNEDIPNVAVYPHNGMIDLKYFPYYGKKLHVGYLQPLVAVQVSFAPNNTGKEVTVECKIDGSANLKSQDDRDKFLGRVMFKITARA
Sequence of UniProt Q15436 (Q15436 whole entry): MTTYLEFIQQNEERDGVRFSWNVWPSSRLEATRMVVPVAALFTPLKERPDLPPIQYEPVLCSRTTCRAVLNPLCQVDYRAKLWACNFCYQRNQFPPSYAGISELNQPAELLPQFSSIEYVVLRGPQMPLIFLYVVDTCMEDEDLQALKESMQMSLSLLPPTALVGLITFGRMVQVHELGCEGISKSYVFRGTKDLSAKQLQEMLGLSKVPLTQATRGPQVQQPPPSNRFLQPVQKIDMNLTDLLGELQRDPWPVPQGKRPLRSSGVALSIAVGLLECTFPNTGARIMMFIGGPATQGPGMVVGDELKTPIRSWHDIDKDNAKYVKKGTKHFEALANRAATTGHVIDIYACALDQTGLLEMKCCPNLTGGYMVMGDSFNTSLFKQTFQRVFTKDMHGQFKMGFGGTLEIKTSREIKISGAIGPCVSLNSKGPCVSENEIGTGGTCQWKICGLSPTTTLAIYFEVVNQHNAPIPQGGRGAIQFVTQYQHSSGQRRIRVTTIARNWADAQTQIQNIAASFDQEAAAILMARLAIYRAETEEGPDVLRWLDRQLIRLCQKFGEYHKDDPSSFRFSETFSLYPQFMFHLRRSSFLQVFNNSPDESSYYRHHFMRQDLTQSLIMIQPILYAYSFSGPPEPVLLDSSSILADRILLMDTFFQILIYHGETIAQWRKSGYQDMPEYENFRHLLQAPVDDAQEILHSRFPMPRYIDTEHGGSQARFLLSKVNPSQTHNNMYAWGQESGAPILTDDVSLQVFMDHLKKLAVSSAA
Sequence of UniProt Q13112 (Q13112 whole entry, looked up): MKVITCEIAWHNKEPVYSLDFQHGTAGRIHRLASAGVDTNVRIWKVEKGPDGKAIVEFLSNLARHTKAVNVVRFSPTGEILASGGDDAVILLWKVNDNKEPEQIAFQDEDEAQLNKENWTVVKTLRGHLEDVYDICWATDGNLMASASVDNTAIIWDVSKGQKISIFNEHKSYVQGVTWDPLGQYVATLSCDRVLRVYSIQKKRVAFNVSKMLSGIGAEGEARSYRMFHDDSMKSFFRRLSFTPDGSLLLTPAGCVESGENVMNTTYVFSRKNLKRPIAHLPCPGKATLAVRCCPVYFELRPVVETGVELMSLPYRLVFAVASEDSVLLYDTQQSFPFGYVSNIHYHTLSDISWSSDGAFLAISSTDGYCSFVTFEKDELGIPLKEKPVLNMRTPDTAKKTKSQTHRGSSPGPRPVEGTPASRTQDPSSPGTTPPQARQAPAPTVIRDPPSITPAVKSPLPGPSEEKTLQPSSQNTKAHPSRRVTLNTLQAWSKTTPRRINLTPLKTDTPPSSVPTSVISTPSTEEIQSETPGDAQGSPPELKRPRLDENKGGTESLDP
Sequence of UniProt O95202 (O95202 whole entry): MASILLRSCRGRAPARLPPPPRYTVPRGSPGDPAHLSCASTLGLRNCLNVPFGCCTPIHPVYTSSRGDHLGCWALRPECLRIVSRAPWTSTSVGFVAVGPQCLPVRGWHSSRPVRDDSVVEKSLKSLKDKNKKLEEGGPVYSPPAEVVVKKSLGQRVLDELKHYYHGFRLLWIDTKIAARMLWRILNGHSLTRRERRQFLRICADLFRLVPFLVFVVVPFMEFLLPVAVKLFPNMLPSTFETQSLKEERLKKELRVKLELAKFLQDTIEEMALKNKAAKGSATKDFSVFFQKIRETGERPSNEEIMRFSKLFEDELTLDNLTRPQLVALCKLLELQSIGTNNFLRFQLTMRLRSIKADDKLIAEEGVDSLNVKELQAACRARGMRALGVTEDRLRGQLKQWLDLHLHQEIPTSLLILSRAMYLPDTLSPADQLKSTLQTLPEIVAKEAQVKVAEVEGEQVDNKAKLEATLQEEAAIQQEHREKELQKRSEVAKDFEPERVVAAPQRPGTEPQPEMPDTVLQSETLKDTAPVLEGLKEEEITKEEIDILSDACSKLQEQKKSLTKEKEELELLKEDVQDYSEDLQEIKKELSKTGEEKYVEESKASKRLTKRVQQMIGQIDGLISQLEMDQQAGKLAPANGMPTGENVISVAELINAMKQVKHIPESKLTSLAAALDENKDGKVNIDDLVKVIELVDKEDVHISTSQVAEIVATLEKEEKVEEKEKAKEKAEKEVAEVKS
Sequence of UniProt Q93015 (Q93015 whole entry): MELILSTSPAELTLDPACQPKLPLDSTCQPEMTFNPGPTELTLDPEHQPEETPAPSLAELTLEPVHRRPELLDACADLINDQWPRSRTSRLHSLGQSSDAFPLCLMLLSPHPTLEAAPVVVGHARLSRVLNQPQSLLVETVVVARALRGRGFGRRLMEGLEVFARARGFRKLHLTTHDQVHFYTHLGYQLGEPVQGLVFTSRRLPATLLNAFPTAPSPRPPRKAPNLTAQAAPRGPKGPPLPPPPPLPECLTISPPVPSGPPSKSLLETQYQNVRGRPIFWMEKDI

Row | Target | thermal stability z-score (potassium arsenate) | thermal stability z-score (lipoamide; [1]) | thermal stability z-score (lipoamide; arsenate co-treatment: none)
1 | EIF3L (UniProt Q9Y262) | -0.297 | 0.23 | 0.373
2 | SEC23A (UniProt Q15436) | -0.0157 | -0.106 | 0.228
3 | EML1 (UniProt O00423) | -0.156 | 0.345 | 0.15
4 | CALU (UniProt O43852) | 0.255 | 0.0232 | 0.235
5 | SIN3B (UniProt O75182) | -0.327 | 0.0836 | 0.279
6 | KIAA0196 (UniProt Q12768) | 0.0921 | -0.101 | 0.0446
7 | CHAF1B (UniProt Q13112) | 1.29 | 1.3 | 1.08
8 | GET4 (UniProt Q7L5D6) | 0.752 | -0.844 | -0.0598
9 | PLD1 (UniProt Q13393) | 0.0184 | -0.0197 | 0.0638
10 | SLC39A11 (UniProt Q8N1S5) | 0.429 | 0.867 | 0.694
11 | ATP1B3 (UniProt P54709) | -0.13 | -0.0616 | -0.138
12 | SMAP2 (UniProt Q8WU79) | -1.45 | -1.95 | -0.774
13 | PSMG2 (UniProt Q969U7) | 2.01 | 0.926 | 0.248
14 | TXNRD2 (UniProt Q9NNW7) | 4.89 | 0.179 | 0.166
15 | UFD1L (UniProt Q92890) | 0.36 | -0.427 | -0.0782
16 | INSR (UniProt P06213) | 0.639 | 0.408 | 0.683
17 | HRSP12 (UniProt P52758) | 0.206 | 0.703 | 0.341
18 | VTI1B (UniProt Q9UEU0) | -0.184 | -0.0224 | -0.376

Row | Target | thermal stability z-score (potassium arsenate) | thermal stability z-score (lipoamide; [1]) | thermal stability z-score (lipoamide; arsenate co-treatment: none)
19 | GFM1 (UniProt Q96RP9) | -1.15 | -0.469 | 0.0798
20 | MIER1 (UniProt Q8N108) | 0.0984 | 1.22 | 1.38
21 | METTL14 (UniProt Q9HCE5) | -0.164 | 0.355 | -0.836
22 | SURF4 (UniProt O15260) | -0.243 | -0.416 | -0.214
23 | B4GALT1 (UniProt P15291) | 0.0478 | -0.454 | -0.565
24 | RBBP9 (UniProt O75884) | 0.167 | 0.308 | 0.162
25 | TOLLIP (UniProt Q9H0E2) | -0.313 | 0.239 | 0.158
26 | SNW1 (UniProt Q13573) | -0.395 | -0.497 | -0.726
27 | AP4M1 (UniProt O00189) | -0.173 | 0.0799 | -0.0232
28 | DMXL1 (UniProt Q9Y485) | -0.0177 | 0.485 | 0.00841
29 | GSPT1 (UniProt P15170) | 0.226 | -0.00711 | 0.472
30 | VARS2 (UniProt Q5ST30) | 0.279 | -0.824 | -0.273
31 | ATXN10 (UniProt Q9UBB4) | -1.03 | 0.258 | 0.374
32 | MARK3 (UniProt P27448) | -0.0953 | -0.0834 | -0.0843
33 | FNBP1L (UniProt Q5T0N5) | -0.284 | -0.051 | 0.0394
34 | LETM1 (UniProt O95202) | 0.0137 | 0.0577 | 0.374
35 | POLR1A (UniProt O95602) | -2.59 | 0.371 | -0.00373
36 | NAT6 (UniProt Q93015) | -0.338 | 0.0786 | -0.349
